In PubChem BioAssay (NCI):
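Five compound concentrations were applied to cells in 96-well plates for 48 hours; endpoints were derived by simple linear interpolation of the resulting dose-response curve. GI50: concentration for 50% inhibition of growth. TGI is the concentration that stops growth completely.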

Legend:
Test in all cases: growth of human tumour cells (NCI), 48 h
HOP-92 NSCLC = tested on: HOP-92 NSCLC
HS 578T breast = tested on: HS 578T breast
MDA-MB-435 = tested on: MDA-MB-435
NCI-H226 lung = tested on: NCI-H226 lung
NCI-H23 lung = tested on: NCI-H23 lung
OVCAR-5 ovarian = tested on: OVCAR-5 ovarian
TK-10 renal = tested on: TK-10 renal
UO-31 renal = tested on: UO-31 renal
A498 renal = tested on: A498 renal
MDA-MB-231 breast = tested on: MDA-MB-231 breast

Row | SMILES | TGI (HOP-92 NSCLC) [µM] | TGI (HS 578T breast) [µM] | TGI (MDA-MB-435) [µM] | TGI (NCI-H226 lung) [µM] | TGI (NCI-H23 lung) [µM] | TGI (OVCAR-5 ovarian) [µM] | TGI (TK-10 renal) [µM] | TGI (UO-31 renal) [µM] | TGI (A498 renal) [µM] | TGI (MDA-MB-231 breast) [µM] | GI50 (A498 renal) [µM] | GI50 (HOP-92 NSCLC) [µM] | GI50 (HS 578T breast) [µM] | GI50 (MDA-MB-231 breast) [µM] | GI50 (MDA-MB-435) [µM] | GI50 (NCI-H226 lung) [µM] | GI50 (NCI-H23 lung) [µM] | GI50 (TK-10 renal) [µM] | GI50 (UO-31 renal) [µM]
1 | CCCn1c(=O)c2nn3c(=O)n(CCC)c(=O)c3nn2c1=O | > 100 | > 100 | > 100 | > 100 | > 100 | > 100 | > 100 | > 100 |  |  |  |  |  |  |  |  |  |  | 
2 | Cc1ccc(S(=O)(=O)ON2C(=O)c3c(N)c(C#N)c(-c4ccccc4)c(-c4ccccc4)c3C2=O)cc1 | 49.4 | > 100 | 22.1 | 38.7 |  | 60 | 36.8 |  | 44.1 | 36.4 |  |  |  |  |  |  |  |  | 
3 | COCC12CCC(OC)C34C5CC6(O)C(OC)C=C(C5C6OC(=O)c5ccccc5)C(C(OC)C13)C4N(C)C2 (stereo not drawn) | > 100 | > 100 | > 100 |  | > 100 | > 100 | > 100 | > 100 | > 100 | > 100 |  |  |  |  |  |  |  |  | 
4 | CO[C@H]1O[C@@H]2OC3(C)CCC4[C@H](C)CCC([C@H]1C)[C@]42OO3 (stereo partly drawn) | > 100 | > 100 | > 100 | > 100 | > 100 | > 100 |  | > 100 | > 100 | > 100 |  |  |  |  |  |  |  |  | 
5 | CCCCCC#COC1CC(C)CC[C@@H]1C(C)C (stereo partly drawn) | > 100 |  |  | > 100 | > 100 | > 100 | > 100 | > 100 |  |  |  |  |  |  |  |  |  |  | 
6 | Cc1ccc(SCC(CF)OC(C)n2cnc3c(Cl)nc(N)nc32)cc1 (stereo not drawn) | > 100 | > 100 | > 100 | > 100 | > 100 | > 100 | > 100 | > 100 |  | > 100 |  |  |  |  |  |  |  |  | 
7 | CC(C)COP(C)(=O)C(N)(C(F)(F)F)C(F)(F)F (stereo not drawn) | > 100 | > 100 | > 100 | > 100 | > 100 | > 100 | > 100 | > 100 |  | > 100 |  |  |  |  |  |  |  |  | 
8 | N#Cc1ccc(C(C2C(=O)NC(=O)NC2=O)C2C(=O)NC(=O)NC2=O)cc1 | > 100 |  |  | > 100 | > 100 | > 100 | > 100 | > 100 |  |  |  |  |  |  |  |  |  |  | 
9 | Cc1c(-c2nc(N)c(C#N)c(N)c2C#N)c(=O)oc2ccccc12 | > 100 | > 100 |  | > 100 | > 100 | > 100 | > 100 | > 100 | > 100 | > 100 |  |  |  |  |  |  |  |  | 
10 | CN(C)CCN(C)C(=O)C1CCCN1C(=O)OCc1ccccc1 (stereo not drawn) | > 100 |  |  | > 100 | > 100 | > 100 | > 100 | > 100 | > 100 |  |  |  |  |  |  |  |  |  | 
11 | CCCCCCCCCC/C=C/C=O | > 100 |  |  |  | > 100 | > 100 | > 100 | > 100 | > 100 |  |  |  |  |  |  |  |  |  | 
12 | COC(=O)[C@]1(C)CCC[C@]2(C)[C@@H](CCC(=O)C(C)C)[C@]3(C=O)O[C@@H]3C[C@H]21 | > 100 | > 100 | 99.6 | > 100 | > 100 | > 100 | > 100 | 48.4 |  | > 100 |  |  |  |  |  |  |  |  | 
13 | COc1cc(/C=C/C(=O)c2ccc(F)cc2)ccc1OCCCCCOc1cc2c(cc1OC)C(=O)N1CCCC1C=N2 (stereo not drawn) | 0.575 | 0.223 | 0.145 | 1.07 | 0.0662 |  | 0.981 | 3.64 | 0.331 | 1.96 | 0.138 | 0.158 | 0.0298 | 0.282 | 0.0339 | 0.0493 | 0.0186 | 0.123 | 0.0473
14 | O=C(Oc1c(Br)cc(Br)cc1C(=O)Oc1ccccc1)C(=O)Oc1c(Br)cc(Br)cc1C(=O)Oc1ccccc1 | 38.4 | > 100 | > 100 | 46 | 46.6 | 89.9 | > 100 | 49.7 |  | 30.6 |  |  |  |  |  |  |  |  | 
15 | CCOC(=O)/C(=C/c1ccccc1Br)P(=O)(OCC)OCC | 3.45 |  |  | 6.89 | 4.09 | 5.92 | 7.98 |  | 8.61 |  |  |  |  |  |  |  |  |  | 
16 | Fc1cccc(C2SCc3nc4cc5ccccc5cc4n32)c1 (stereo not drawn) | > 100 | > 100 | > 100 | > 100 | > 100 | > 100 | > 100 | > 100 |  | > 100 |  |  |  |  |  |  |  |  | 
17 | CC(CNC(=O)c1ccccc1)(CNC(=O)c1ccccc1)[N+](=O)[O-] | > 100 | > 100 | > 100 | > 100 | > 100 | > 100 | > 100 | > 100 |  | > 100 |  |  |  |  |  |  |  |  | 
18 | C=CC(=O)NCNC(=O)C=C | > 100 |  |  | > 100 | > 100 | > 100 | > 100 | > 100 | > 100 |  |  |  |  |  |  |  |  |  | 
19 | C(=N\NC1=NCCN1)/c1cccc2cc3ccncc3nc12 | 6.4 | 61.3 | 10.5 | 21.2 | 25.5 |  | 22.2 | 14.2 | 23.9 | 6.13 |  |  |  |  |  |  |  |  | 
20 | Oc1c(Cl)c(Cl)c(O)c(CCNc2nccs2)c1Cl | > 100 |  | 41.8 |  | 37.9 | 39 | 33 | 32.9 |  | 2.16 |  |  |  |  |  |  |  |  | 
21 | CC(=O)Oc1ccc(Nn2c3ccccc3c3ccccc32)c(C)c1 | 64 |  |  |  | > 100 | > 100 | > 100 | > 100 |  |  |  |  |  |  |  |  |  |  | 
22 | CCOC(=O)Nc1n[nH]nc1Cl |  | > 100 | > 100 | > 100 | > 100 | > 100 | > 100 | > 100 | > 100 | > 100 |  |  |  |  |  |  |  |  | 
23 | CCN(CC)C(=S)N/N=C/c1cc(OC)ccc1O |  | > 100 | > 100 | 25.5 | > 100 | > 100 | > 100 | 6.12 | 18 | > 100 |  |  |  |  |  |  |  |  | 
24 | O=C1C=CC(=O)c2cc(Sc3ccccc3)c(=O)c(Sc3ccccc3)cc21 | 50.5 |  |  | > 100 | > 100 |  | > 100 | > 100 | > 100 |  |  |  |  |  |  |  |  |  | 
